In ChEMBL document CHEMBL3797052 (Eur J Med Chem, 2016):

Legend:
Format in all cases: functional
[1] = Cytotoxicity against human HCT116 cells assessed as growth inhibition at 100 uM after 2 days by MTT assay; conditions: HCT-116, 48 h, read-out: GI
[2] = Cytotoxicity against human HCT116 cells assessed as growth inhibition at 10 uM after 2 days by MTT assay; conditions: HCT-116, 48 h, read-out: GI
[3] = Cytotoxicity against human SKBR3 cells assessed as growth inhibition at 100 uM after 2 days by MTT assay; conditions: SK-BR-3, 48 h, read-out: GI
[4] = Cytotoxicity against human SKBR3 cells assessed as growth inhibition at 10 uM after 2 days by MTT assay; conditions: SK-BR-3, 48 h, read-out: GI
[5] = system: CCRF-CEM; test: Antiproliferative activity against human CCRF-CEM cells assessed as cell growth at 10^-5 M after 48 hrs by sulforhodamine B assay; conditions: read-out: Activity
[6] = Antiproliferative activity against human HL-60(TB) cells assessed as cell growth at 10^-5 M after 48 hrs by sulforhodamine B assay; conditions: HL-60, 48 h, read-out: Activity
[7] = system: K562; test: Antiproliferative activity against human K562 cells assessed as cell growth at 10^-5 M after 48 hrs by sulforhodamine B assay; conditions: K562, 48 h, read-out: Activity
[8] = system: SR; test: Antiproliferative activity against human SR cells assessed as cell growth at 10^-5 M after 48 hrs by sulforhodamine B assay; conditions: read-out: Activity
[9] = system: A549; test: Antiproliferative activity against human A549/ATCC cells assessed as cell growth at 10^-5 M after 48 hrs by sulforhodamine B assay; conditions: A549, 48 h, read-out: Activity
[10] = system: EKVX; test: Antiproliferative activity against human EKVX cells assessed as cell growth at 10^-5 M after 48 hrs by sulforhodamine B assay; conditions: read-out: Activity
[11] = system: NCI-H226; test: Antiproliferative activity against human NCI-H226 cells assessed as cell growth at 10^-5 M after 48 hrs by sulforhodamine B assay; conditions: NCI-H226, 48 h, read-out: Activity
[12] = system: NCI-H23; test: Antiproliferative activity against human NCI-H23 cells assessed as cell growth at 10^-5 M after 48 hrs by sulforhodamine B assay; conditions: NCI-H23, 48 h, read-out: Activity
[13] = system: NCI-H460; test: Antiproliferative activity against human NCI-H460 cells assessed as cell growth at 10^-5 M after 48 hrs by sulforhodamine B assay; conditions: NCI-H460, 48 h, read-out: Activity
[14] = Antiproliferative activity against human COLO205 cells assessed as cell growth at 10^-5 M after 48 hrs by sulforhodamine B assay; conditions: COLO 205, 48 h, read-out: Activity
[15] = Antiproliferative activity against human HCC2998 cells assessed as cell growth at 10^-5 M after 48 hrs by sulforhodamine B assay; conditions: HCC 2998, 48 h, read-out: Activity
[16] = Antiproliferative activity against human HCT116 cells assessed as cell growth at 10^-5 M after 48 hrs by sulforhodamine B assay; conditions: HCT-116, 48 h, read-out: Activity
[17] = system: HT-29; test: Antiproliferative activity against human HT-29 cells assessed as cell growth at 10^-5 M after 48 hrs by sulforhodamine B assay; conditions: HT-29, 48 h, read-out: Activity
[18] = Antiproliferative activity against human SF295 cells assessed as cell growth at 10^-5 M after 48 hrs by sulforhodamine B assay; conditions: SF-295, 48 h, read-out: Activity
[19] = Antiproliferative activity against human SNB19 cells assessed as cell growth at 10^-5 M after 48 hrs by sulforhodamine B assay; conditions: SNB-19, 48 h, read-out: Activity
[20] = Antiproliferative activity against human SNB75 cells assessed as cell growth at 10^-5 M after 48 hrs by sulforhodamine B assay; conditions: SNB-75, 48 h, read-out: Activity
[21] = system: Malme-3M; test: Antiproliferative activity against human MALME-3M cells assessed as cell growth at 10^-5 M after 48 hrs by sulforhodamine B assay; conditions: read-out: Activity
[22] = system: M14; test: Antiproliferative activity against human M14 cells assessed as cell growth at 10^-5 M after 48 hrs by sulforhodamine B assay; conditions: M14, 48 h, read-out: Activity
[23] = system: SK-MEL-5; test: Antiproliferative activity against human SK-MEL-5 cells assessed as cell growth at 10^-5 M after 48 hrs by sulforhodamine B assay; conditions: SK-MEL-5, 48 h, read-out: Activity
[24] = Antiproliferative activity against human UACC257 cells assessed as cell growth at 10^-5 M after 48 hrs by sulforhodamine B assay; conditions: UACC-257, 48 h, read-out: Activity
[25] = Antiproliferative activity against human UACC62 cells assessed as cell growth at 10^-5 M after 48 hrs by sulforhodamine B assay; conditions: UACC-62, 48 h, read-out: Activity
[26] = Antiproliferative activity against human IGROV1 cells assessed as cell growth at 10^-5 M after 48 hrs by sulforhodamine B assay; conditions: IGROV-1, 48 h, read-out: Activity
[27] = Antiproliferative activity against human OVCAR5 cells assessed as cell growth at 10^-5 M after 48 hrs by sulforhodamine B assay; conditions: OVCAR-5, 48 h, read-out: Activity
[28] = system: 786-0; test: Antiproliferative activity against human 786-0 cells assessed as cell growth at 10^-5 M after 48 hrs by sulforhodamine B assay; conditions: 786-0, 48 h, read-out: Activity
[29] = system: A498; test: Antiproliferative activity against human A498 cells assessed as cell growth at 10^-5 M after 48 hrs by sulforhodamine B assay; conditions: A498, 48 h, read-out: Activity
[30] = system: ACHN; test: Antiproliferative activity against human ACHN cells assessed as cell growth at 10^-5 M after 48 hrs by sulforhodamine B assay; conditions: read-out: Activity
[31] = system: SN12C; test: Antiproliferative activity against human SN12C cells assessed as cell growth at 10^-5 M after 48 hrs by sulforhodamine B assay; conditions: read-out: Activity
[32] = Antiproliferative activity against human UO31 cells assessed as cell growth at 10^-5 M after 48 hrs by sulforhodamine B assay; conditions: UO-31, 48 h, read-out: Activity
[33] = Antiproliferative activity against human DU145 cells assessed as cell growth at 10^-5 M after 48 hrs by sulforhodamine B assay; conditions: DU-145, 48 h, read-out: Activity
[34] = system: MDA-MB-231; test: Antiproliferative activity against human MDA-MB-231 cells assessed as cell growth at 10^-5 M after 48 hrs by sulforhodamine B assay; conditions: MDA-MB-231, 48 h, read-out: Activity
[35] = Antiproliferative activity against human BT549 cells assessed as cell growth at 10^-5 M after 48 hrs by sulforhodamine B assay; conditions: BT-549, 48 h, read-out: Activity
[36] = system: MDA-MB-468; test: Antiproliferative activity against human MDA-MB-468 cells assessed as cell growth at 10^-5 M after 48 hrs by sulforhodamine B assay; conditions: MDA-MB-468, 48 h, read-out: Activity
[37] = Antiproliferative activity against human MOLT4 cells assessed as cell growth at 10^-5 M after 48 hrs by sulforhodamine B assay; conditions: MOLT-4, 48 h, read-out: Activity

Compound	inhibition of growth at 100 µM [1] [%]	inhibition of growth at 10 µM [2] [%]	inhibition of growth at 100 µM [3] [%]	inhibition of growth at 10 µM [4] [%]	growth at 10 µM [5] [%]	growth at 10 µM [6] [%]	growth at 10 µM [7] [%]	growth at 10 µM [8] [%]	growth at 10 µM [9] [%]	growth at 10 µM [10] [%]	growth at 10 µM [11] [%]	growth at 10 µM [12] [%]	growth at 10 µM [13] [%]	growth at 10 µM [14] [%]	growth at 10 µM [15] [%]	growth at 10 µM [16] [%]	growth at 10 µM [17] [%]	growth at 10 µM [18] [%]	growth at 10 µM [20] [%]	growth at 10 µM [21] [%]	also measured
CNC(=O)c1cc(Oc2ccc(NC(=O)Nc3ccc(Cl)c(C(F)(F)F)c3)cc2)ccn1 [SORAFENIB]	97.3	48.4	93.1	48.9																	
CNC(=O)c1cc(Oc2ccc3nc(NC(=O)Nc4cc(C(F)(F)F)cc(C(F)(F)F)c4)sc3c2)ccn1	98.4	87.5	96.3	88.1	-16	-46	-20	-47	-91	-31	-57	-59	-75	-79	-64	-90	-80	-89	-66	-74	growth at 10 µM [19]: -34%; growth at 10 µM [22]: -74%; growth at 10 µM [23]: -76%; growth at 10 µM [24]: -82%; growth at 10 µM [25]: -77%; growth at 10 µM [26]: -62%; growth at 10 µM [27]: -64%; growth at 10 µM [28]: -89%; growth at 10 µM [29]: -79%; growth at 10 µM [30]: -77%; growth at 10 µM [31]: -58%; growth at 10 µM [32]: -87%; growth at 10 µM [33]: -69%; growth at 10 µM [34]: -64%; growth at 10 µM [35]: -71%; growth at 10 µM [36]: -70%
CNC(=O)c1cc(Oc2ccc3nc(NC(=O)c4ccc(Cl)c(C(F)(F)F)c4)sc3c2)ccn1	92.3	30.2	86.5	6.26	68.4	89.4	69.9	37.6	71.7	78.8	93.4	69.1	56.4	80.4	74.8	61.9	68.1	78.3	39	57	growth at 10 µM [37]: 67.3%; growth at 10 µM [22]: 89.9%; growth at 10 µM [23]: 70.9%; growth at 10 µM [24]: 75.3%; growth at 10 µM [25]: 81.1%; growth at 10 µM [26]: 85.8%; growth at 10 µM [27]: 93.3%; growth at 10 µM [29]: 69%; growth at 10 µM [30]: 60.6%; growth at 10 µM [31]: 75.6%; growth at 10 µM [32]: 80.4%; growth at 10 µM [33]: 73%; growth at 10 µM [34]: 75.3%; growth at 10 µM [35]: 80.6%; growth at 10 µM [36]: 48.5%
